Results reported in patent EP0430983B1, “USE OF CASTANOSPERMINE AS AN ANTI-INFLAMMATORY AND IMMUNOSUPPRESSANT AGENT” (THE AUSTRALIAN NATIONAL UNIVERSITY, priority 1988, dated 1990).
“And” between values parts separate entries of the source, which are not always exact repeats. Equal values may be shown once.

Legend:
passive EAE = assay: Passively induced experimental allergic encephalomyelitis (passive EAE), clinical grading and CNS histology; format: in vivo, Lewis (RT-1') rats; conditions: for protection against clinical EAE: osmotic pump implanted at time of cell transfer; for mean clinical score: score out of possible 5 ± standard errors
[1] = Preliminary toxicity studies; format: in vivo; conditions: 500 mg/kg/day for 7 days; animals observed for a 6 week period after treatment; data not shown
[2] = tested on: passively induced adjuvant arthritis; assay: Passively induced adjuvant arthritis, change in foot volume; format: in vivo, (DAxLewis)F₁ rats; conditions: for % Δ in foot volume: 350 mg/kg/day s.c. osmotic pump from cell transfer, individual rats, 350 mg/kg/day
Protocol: (DAxLewis)F₁ rats were immunized with 3mg M.butyricum in light mineral oil injected intradermally in both hind feet. Ten days later spleens were removed and made into a single cell suspension in RPMI containing 5% fetal calf serum, 200mM L Glutamine, 5 x 10⁻ ⁵M 2-ME, penicillin and streptomycin. Cells were adjusted to 2 x 10⁶ cells/ml, and cultured in 50ml media in 75mm culture flasks. ConA was added at 2µg/ml and cultures incubated for 72hrs at 37°C in an atmosphere of 10% CO₂, 7% O₂ and the balance N₂. Cells were then washed and transferred at 50 x 10⁶ or 60 x 10⁶ cells/rat i.v. into 10 weeks old male (DAxLewis)F₁.
Castanospermine was put in osmotic pumps (Alza Corp.) which delivered 5µl/hr for 14 days. Pumps were implanted subcutaneously at the time of cell transfer. Rats received 350mg/kg/day of castanospermine.
Hind feet of rats were measured in 4 diameters beginning the day of cell transfer. The measurements are averaged and expressed as % change in volume of feet.
Two experiments have been performed both treating rats with 350mg/kg/day castanospermine beginning the day of cell transfer.

pancreatic islets = assay: Transplantation of allogeneic pancreatic islets, graft rejection by blood glucose; format: in vivo, CBA mice
Protocol: Donor mice were Balb/c (H2^d) and recipients were CBA (H2^k). Donor pancreatic islets were prepared using standard techniques. Approximately 400 islets were isolated from 10 donor mice. These freshly isolated islets, in groups of 50, were placed into CBA blood clots and these were placed under the kidney capsule of CBA mice which were diabetic (blood glucose 20mM/litre).
Two recipients were implanted (subcutaneously) with miniosmotic pumps containing CS at the time of islet transplantation. These pumps delivered CS at a dose of 300 mg/kg/mouse/day for a period of 14 days. Two control mice were sham operated.
Blood samples (10µl) were taken daily and assayed for blood glucose using an automatic analyser (Beckman Glucose Analyzer 2).
All transplant recipients became normoglycaemic within 24 hours indicating successful transplantation of all of the grafts. Rejection of grafts was assumed to occur when animals became hyperglycaemic. Control animals rejected on days 9 and 12.

renal allografts = assay: Renal allograft survival; format: in vivo, DA rats; conditions: pump; for No. of rats surviving more than 14 days: DA rats with (DA/LEW) renal allografts; for No. of days of Survival: the rat surviving more than 14 days
Description: One kidney from each rat was replaced with a donor kidney, after which the remaining original rat kidney was removed. The results are set out in Table 5 below: Table 5

[3] = tested on: Delayed hypersensitivity (DTH); assay: Delayed hypersensitivity (DTH) to sheep red blood cells, foot swelling; format: in vivo, C57BL mice; conditions: CS ip every 4 hours from footpad testing, total 300 mg/kg/mouse over 24 hrs; 5 mice/group; control group 33%
Protocol: C57BL mice were given 10⁸ sheep red blood cells (SRBC) intravenously. Five days later 10⁵ SRBC in a volume of […] was injected into the left hind footpad and […] saline into the right. Castanospermine was given every 4 hours ip beginning at the time of footpad testing. Total dose of CS over 24 hrs was 300 mg/kg/mouse. Control mice were given saline every 4 hours, and 5 mice/group were used in both test and control groups.

[4] = Table 1, CS 100 mg/kg/day, s.c. miniosmotic pump at time of cell transfer
[5] = Table 1, CS 200 mg/kg/day, s.c. miniosmotic pump at time of cell transfer

O[C@H]1[C@H](O)[C@@H](O)CN2CC[C@H](O)[C@H]12 [CS, Castanospermine]
protection against clinical EAE (passive EAE; 100 mg/kg/day): no protective effect | protection against clinical EAE (passive EAE; 200 mg/kg/day): only partial protection | number of inflammatory lesions in CNS tissues (histology) (passive EAE; 300 mg/kg/day from cell transfer, rats killed at day 8, compared with untreated rats): approximately the same number of inflammatory lesions as untreated rats | protection against clinical EAE (passive EAE; 300 mg/kg/day): complete protection | mean day of onset (passive EAE; [4]): 4±0 | mean clinical score (passive EAE; [4]): 4.0±0 | animals with EAE (passive EAE; Table 1, CS 100 mg/kg/day, s.c. miniosmotic pump placed at time of cell transfer): 4/4 | mean day of onset (passive EAE; [5]): 5±0 | mean clinical score (passive EAE; [5]): 2.0±0 | animals with EAE (passive EAE; Table 1, CS 200 mg/kg/day, s.c. miniosmotic pump placed at time of cell transfer): 4/4 | animals with EAE (passive EAE; Table 1, CS 300 mg/kg/day, s.c. miniosmotic pump placed at time of cell transfer): 0/4 | animals with EAE (passive EAE; Table 2, convalescent rats (compromised blood-brain barrier), CS 300 mg/kg/day, s.c. miniosmotic pump at time of secondary cell transfer): 0/4 | animals with EAE (passive EAE; Table 2, naive rats, CS 300 mg/kg/day, s.c. miniosmotic pump at time of cell transfer): 0/4 | animals with EAE (passive EAE; Table 3, experiment 1, CS 150 mg/kg i.p., 12 hourly, initiated on day 4 (before clinical signs), for 3 days): 0/3 | animals with EAE (passive EAE; Table 3, experiment 2, CS 150 mg/kg i.p., 12 hourly, initiated on day 4 (after onset of signs)): 3/3 | mean clinical score (passive EAE; Table 3, experiment 2, CS 150 mg/kg i.p., 12 hourly, initiated on day 4): 4±0 | animals with EAE (passive EAE; Table 3, experiment 3, CS 300 mg/kg osmotic pump, initiated on day 4 (after onset of signs)): 5/5 | mean clinical score (passive EAE; Table 3, experiment 3, CS 300 mg/kg osmotic pump, initiated on day 4): 4±0 | clinical signs of EAE with delayed treatment (passive EAE; exp.1, two 150 mg/kg i.p. injections daily from 4 days after cell transfer for 3 days, signs in untreated animals not apparent until day 6): did not develop clinical signs of EAE | clinical signs of EAE with delayed treatment (passive EAE; exp.3, osmotic pumps implanted on day 4 after cell transfer, all animals showed mild clinical signs on day 4): failed to modify subsequent disease expression | second episode of passively induced EAE (passive EAE; rats recovered from one episode, pump delivering 300 mg/kg/day on the day of secondary transfer): did not develop a second episode of the disease | toxic effect [1]: no apparent toxic effect | % Δ in foot volume ([2]; Exp 1, 50 x 10^6 cells, Day 7): -5% and 5% and 0% and +12% | % Δ in foot volume ([2]; Exp 1, 50 x 10^6 cells, Day 14): -1% and 0% and +9% and +4% | inflammation of feet ([2]; Exp 1 and Exp 2, 350 mg/kg/day from cell transfer): In no case did any of the CS treated rats show inflammation | % Δ in foot volume ([2]; Exp 2, 60 x 10^6 cells, Day 7): -5% and -7% and -3% and +3% | % Δ in foot volume ([2]; Exp 2, 60 x 10^6 cells, Day 14): -8% and -18% and -14% and -1% | swelling and inflammation after end of treatment ([2]; Exp 2, pumps removed on day 15, animals followed out to day 28+): remained normal | day of graft rejection (hyperglycaemia) (pancreatic islets; Balb/c islets in diabetic CBA mice, 300 mg/kg/mouse/day s.c. miniosmotic pump for 14 days, one mouse, controls rejected on days 9 and 12): 19 days | day of graft rejection (hyperglycaemia) (pancreatic islets; other CS treated mouse, whose miniosmotic pump was found not to have delivered its CS payload): 12 days | No. of rats surviving more than 14 days (renal allografts; 100mg/kg, 9 rats): 1 | No. of days of Survival (renal allografts; 100mg/kg): 100 days | No. of rats surviving more than 14 days (renal allografts; 250mg/kg, 7 rats): 1 | No. of days of Survival (renal allografts; 250mg/kg): 33 days | increase in foot swelling [3]: 11%
